Entries after “also recorded” stand apart in the source; their conditions may differ.
Key:
[1] = tested on: HepG2 cells; test: Nexin assay for early and late apoptosis (flow cytometry); format: cell-based; details: 50 μM Q10, 24 hours
Excerpt: (§1) The 7AAD dye will enter into cells with permeabilized cell membranes; primarily those cells that are in late apoptosis. Annexin-V-PE is a dye that binds to Phosphotidyl serine, which is exposed on the outer surface of the plasma membrane in early apoptotic cells. The Nexin reagent thus can be used to differentiate between different populations of apoptotic cells in a flow cytometer.

[2] = tested on: MCF-7 cells; test: as above; format: cell-based; details: 50 μM and 100 μM Q10, 24 hours
Excerpt: as §1

[3] = tested on: PaCa2 cells; test: as above; format: cell-based; details: 50 μM and 100 μM Q10, 24 hours
Excerpt: as §1

[4] = tested on: SK-MEL-28 mitochondria; test: LC-MS/MS quantification of Q10 and Q10H2 in mitochondrial enriched samples; format: cell-based; details: for Peak Area Q10: 20% injection
Procedure: Ten μl of each sample was injected.

[5] = tested on: HepG2 (liver cancer) cells; test: Real-time PCR Angiogenesis Array; format: cell-based
Procedure: The treatment was initiated on 1×10^5 cells per well, following the procedure utilized in the PaCa2 cells (above Examples 9-11). However, the total amount of RNA that was extracted from these samples was lower than expected. Reverse transcription is normally done using 1 μg of total RNA (determined by measurement at 260 nm).

[6] = tested on: SKBr3 cells; test: Nexin assay for early and late apoptosis (flow cytometry); format: cell-based, human; details: 50 μM or 100 μM Q10, 24 hours
Excerpt: as §1

[7] = tested on: SCC cells; details: 100 μM Q10; 6 and/or 24 hr
[8] = tested on: HepG2 (liver cancer) cells; test: Real-time PCR Diabetes Array; format: cell-based; details: for genes regulated in the Diabetes Arrays: 100 μM
Procedure: The treatment was initiated on 1×10^5 cells per well, following the procedure utilized in the PaCa2 cells (above, Examples 9-11). However, the total amount of RNA that was extracted from these samples was lower than expected. Reverse transcription is normally done using 1 μg of total RNA (determined by measurement at 260 nm).

[9] = tested on: SK-MEL-28 mitochondria
Procedure: The cells were harvested by washing and scraping the cells from T-160 flasks (4 for each time point). The cells were collected by centrifugation and the pellets flash frozen and stored at −80° C. The cell pellets were resuspended and ruptured using a 2 mL Dounce homogenizer. The reagents and method were obtained from a Mitochondria Isolation Kit for Cultured Cells (MitoSciences, Cat #MS852). The resultant mitochondria samples were divided into 75 μL aliquots (4-5 aliquots per sample) and stored at −80° C.
The samples were subjected to 2-D electrophoresis (in duplicate). Analysis of 525 protein spots in the comparative study was performed, comparing the control samples against the other time point samples (FIG. 11).

[10] = tested on: SCC cells; test: Real-time PCR Diabetes Array; format: cell-based; details: 100 μM
Excerpt: The control cells were untreated cells.

[11] = tested on: HK-2 cells; test: Diabetes PCR array in cell model for diabetes; format: cell-based, human
Procedure: (§2) The HK-2 and HASMC cells are normally maintained in culture at 5.5 mM glucose, which is a concentration that corresponds to a range considered normal in human blood. However, in order to simulate a diabetic environment, both cell lines were subsequently maintained at 22 mM glucose, which corresponds to the range observed in human blood associated with chronic hyperglycemia. The cells were subsequently allowed to propagate over 3 passages so that the intracellular regulation processes were functionally adapted to mimic a diabetic state. The choice of cell line was based on the physiologic influence of diabetes on renal dysfunction and progression to end-stage renal disease (ESRD) in addition to the progressive pathophysiology of a compromised cardiovascular function.
The Diabetes PCR array (SABiosciences) offers a screen for 84 genes simultaneously.
A stringent analysis of the Real time PCR data of the HK-2 samples on the Diabetes Arrays (Cat #PAHS-023E, SABiosciences Frederick Md.) was made to exclude all results where gene regulation was not at least a two-fold regulation over HK-2 normal untreated cells with a p value of less than 0.05.

[12] = tested on: HASMC cells; test: Mitochondria PCR arrays in cell model for diabetes; format: cell-based, human; details: HASMC-(H) 22 mM glucose
Procedure: as §2
(§3) Differential expression of mitochondrial genes in diabetes was assayed using the mitochondria arrays (Cat#PAHS 087E, SABisociences Frederick Md.).

[13] = tested on: HK-2 cells; test: Mitochondria PCR arrays in cell model for diabetes; format: cell-based, human; details: HK-2(H) 22 mM glucose
Procedure: as §2, §3

## COC1=C(OC)C(=O)C(C/C=C(\C)CC/C=C(\C)CC/C=C(\C)CC/C=C(\C)CC/C=C(\C)CC/C=C(\C)CC/C=C(\C)CC/C=C(\C)CC/C=C(\C)CCC=C(C)C)=C(C)C1=O [Q10, Coenzyme Q10]
[1]
  increase of gated population in late apoptotic and early apoptotic stages: about 20%
[2]
  apoptotic population: increase only in early apoptotic population
[3]
  increase in early and late apoptotic cells: 5-10 % of gated cells
[4]; 100 μM Q10, 19 hours, vs untreated
  increase in mitochondrial Q10 levels: ~3 fold
[4]; 100 μM Q10, 48 hour sample, near detection limit
  increase in mitochondrial Q10H2 levels: 3 fold
[4]; 100 μM Q10 in the media, 6 hr
  Peak Area Q10: 25427
[4]; 100 μM Q10 in the media, 19 hr
  Peak Area Q10: 59164
[4]; 100 μM Q10 in the media, 48 hr
  Q10H2 (reduced form) in mitochondrial enriched sample: 0.28 ng/Sample
  Peak Area Q10: 164496
[4]; exogenous addition of Q10 to the media
  form of Q10 in mitochondria (oxidized vs reduced): maintained in the supplied oxidized form
[5]; 100 μM Q10, 16 hours
  ANGPTL3 upregulation over control: approximately 5.5 fold
  ANGPTL4 upregulation over control: ~3 fold
  CXCL1 upregulation over control: ~3 fold
  CXCL3 upregulation over control: ~3.2 fold
  CXCL5 upregulation over control: ~3 fold
  ENG upregulation over control: ~3 fold
  ID3 downregulation over control: approximately 5 fold
  MMP2 upregulation over control: approximately 1 fold
  TIMP3 upregulation over control: ~6.5 fold
[5]; 100 μM Q10, 48 hours
  ANGPTL3 upregulation over control: approximately 3.5 fold
  ANGPTL4 downregulation over control: approximately 1 fold
  CXCL1 upregulation over control: ~1.5 fold
  CXCL3 upregulation over control: ~3.175 fold
  CXCL5 downregulation over control: approximately 1 fold
  ENG upregulation over control: ~2 fold
  ID3 downregulation over control: ~2 fold
  MMP2 downregulation over control: ~18 fold
  TIMP3 upregulation over control: ~3 fold
[6]
  early and late apoptosis: did not show any significant increases of early and late apoptosis
[7]
  Response (direction of protein spot change): Increase; also recorded: hr, decrease
[8]; 100 μM Q10, 16 hours
  PPARGC1A downregulation: approximately 20 fold
  PRKAA1 downregulation: ~6 fold
  SNAP25 downregulation: ~5 fold
[8]; 100 μM Q10, 48 hours
  PPARGC1A regulation: normalized or were slightly upregulated
  PRKAA1 regulation: normalized or were slightly upregulated
  SNAP25 downregulation: approximately 2 fold
[8]; PPARGC1A gene
  genes regulated in the Diabetes Arrays: PPARGC1A
[8]; PRKAA1 gene
  genes regulated in the Diabetes Arrays: PRKAA1
[8]; SNAP25 gene
  genes regulated in the Diabetes Arrays: SNAP25
[9]; 100 μM Q10
  Response at later time points (19, 48 hr): drops more for 19; also recorded: back to normal at 48; also recorded: Up at 19 and 48 hr; also recorded: Up only at 19 hr; also recorded: drop to low levels
[9]; 100 μM Q10, 6 hr
  Response (direction) at 6 hr: Down and Up
[10]; at 6 and 24 hours
  TNFRSF1A gene Regulation: Down regulated at 6 and 24
[10]; at 6 hours
  G6PD gene Regulation: Down regulated at 6 hours.
  ICAM1 gene Regulation: Down regulated at 6 hours.
  INPPL1 gene Regulation: Down regulated at 6 hours.
  NOS3 gene Regulation: Down regulated at 6 hours.
  PIK3CD gene Regulation: Down regulated at 6 hours.
  PPARA gene Regulation: Down regulated at 6 hours.
  PYGL gene Regulation: Down regulated at 6 hours.
  SREBF1 gene Regulation: Down regulated at 6 hours.
  STXBP2 gene Regulation: Down regulated at 6 hours.
  TNF gene Regulation: Down regulated at 6 hours.
  VEGFA gene Regulation: Down regulated at 6 hours.
[11]; HK2(H) cells at 22 mM glucose, particularly 100 μM Coenzyme Q10
  CEACAM1 RNA transcript: highly upregulated
[11]; diabetic HK-2 cells
  insulin receptor (INSR) expression: increase in expression
[12]; 50 uM Coenzyme Q10
  BCL2L1 gene regulation (mitochondria array): −2.7863
  MFN1 gene regulation (mitochondria array): −1.2585
  PMAIP1 gene regulation (mitochondria array): −6.8132
  SLC25A1 gene regulation (mitochondria array): −1.834
  SLC25A13 gene regulation (mitochondria array): −1.5
  SLC25A19 gene regulation (mitochondria array): −1.4257
  SLC25A22 gene regulation (mitochondria array): −1.9839
  TIMM44 gene regulation (mitochondria array): −2.3214
  TOMM40 gene regulation (mitochondria array): −2.0922
  TSPO gene regulation (mitochondria array): −2.0586
[12]; 100 μM Coenzyme Q10
  BCL2L1 gene regulation (mitochondria array): −2.3001
  MFN1 gene regulation (mitochondria array): −2.2632
  PMAIP1 gene regulation (mitochondria array): −4.352
  SLC25A1 gene regulation (mitochondria array): −3.0001
  SLC25A13 gene regulation (mitochondria array): −1.5245
  SLC25A19 gene regulation (mitochondria array): −2.1214
  SLC25A22 gene regulation (mitochondria array): −10.3747
  TIMM44 gene regulation (mitochondria array): −1.9931
  TOMM40 gene regulation (mitochondria array): −2.2684
  TSPO gene regulation (mitochondria array): −2.3647
[13]; 50 μM Coenzyme Q10
  GRPEL1 gene regulation (mitochondria array): −2.6512
  SLC25A3 gene regulation (mitochondria array): −8.2059
  TOMM40 gene regulation (mitochondria array): −1.1567
  TSPO gene regulation (mitochondria array): −6.7583
[13]; 100 μM Coenzyme Q10
  GRPEL1 gene regulation (mitochondria array): −1.933
  SLC25A3 gene regulation (mitochondria array): −1.6984
  TOMM40 gene regulation (mitochondria array): −1.9509
  TSPO gene regulation (mitochondria array): −2.1104
